The target of one data set is human NR1/NR2A (Homo sapiens (Human), UniProt Q05586+Q12879). Briefly: NR2A antagonist activity: calcium influx (Fluo-4) assay in HEK293 cells. Type of data set: cell-based. As to the method: Activation of the NR2A or NR2B subtype of NMDA receptor with glutamate as an agonist and glycine co-agonist on these cells results in calcium influx, which can be monitored with fluorescent indicator Fluo-4.
For experiments, the cells were seeded onto poly-D-lysine-coated 96-well black plates with clear bottom (Corning) at a density of ˜50,000 cells/well. After overnight culture, the growth medium was removed from the wells and the cells were incubated at 37° C. for 60 minutes in Hanks buffer containing 4 μM fluo-4-AM (Invitrogen) and 0.1% bovine serum albumin (BSA). After dye-loading, the cells were washed three times with Hanks buffer and incubated for 10 minutes at room temperature with various concentrations of test compounds prepared in Hanks buffer with 0.1% BSA. The cell plates were placed onto an FDSS Cell fluorescence reader (Hamamatsu). After 20 seconds of reading background fluorescence, agonist glutamate at final 100 µM and co-agonist glycine at final 50 μM were added to the cells to activate the receptor, and the resulting fluorescence changes were recorded and quantified. Based on the changes in fluorescence intensity, the pharmacological effect of test compounds was analyzed and the IC50 values derived from a non-linear least squares fitting of the concentration-dependent response to a standard logistic equation using Prism (Graphpad Software, Inc.): Amplitude=Max Amplitude/(1+(IC50/[antagonist])^n).

A further data set concerns the target human NR1/NR2B (Homo sapiens (Human), UniProt Q05586+Q13224). The data set can be described thus: NR2B antagonist activity: calcium influx (Fluo-4) assay in HEK293 cells. It counts as cell-based. The settings on record: read-out: NR2B IC50. A digest of the protocol: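 HEK293 cells expressing NR1/NR2A or NR1/NR2B, loaded with fluo-4-AM, preincubated 10 min at room temperature with compound in Hanks buffer/0.1% BSA.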

Another data set concerns the target hERG channel (Homo sapiens (Human), UniProt Q12809). The data set can be described thus: hERG channel inhibition, whole cell patch clamp in HEK293 cells. It counts as cell-based. The settings on record: for inhibition at 5 min, 10 µM: human, HEK293 cells stably expressing hERG channel, pH 7.35. (Block of hERG is tested as a sign of cardiac risk.)
The next data set deals with CYP2D6 (Homo sapiens (Human), UniProt P10635). Briefly: CYP P450 enzyme inhibition in pooled human liver microsomes (dextromethorphan probe). To be noted: for inhibition at 10 min, 10 µM: human, pooled human liver microsomes, pH 7.4, probe dextromethorphan, 5 μM, read-out: CYP2D6 Inhibiton at 10 μM. Type of data set: in vitro ADME. As for the experimental part: Test compound concentration-dependent response studies were performed in triplicate.
CYP2D6, sequence (P10635 whole entry): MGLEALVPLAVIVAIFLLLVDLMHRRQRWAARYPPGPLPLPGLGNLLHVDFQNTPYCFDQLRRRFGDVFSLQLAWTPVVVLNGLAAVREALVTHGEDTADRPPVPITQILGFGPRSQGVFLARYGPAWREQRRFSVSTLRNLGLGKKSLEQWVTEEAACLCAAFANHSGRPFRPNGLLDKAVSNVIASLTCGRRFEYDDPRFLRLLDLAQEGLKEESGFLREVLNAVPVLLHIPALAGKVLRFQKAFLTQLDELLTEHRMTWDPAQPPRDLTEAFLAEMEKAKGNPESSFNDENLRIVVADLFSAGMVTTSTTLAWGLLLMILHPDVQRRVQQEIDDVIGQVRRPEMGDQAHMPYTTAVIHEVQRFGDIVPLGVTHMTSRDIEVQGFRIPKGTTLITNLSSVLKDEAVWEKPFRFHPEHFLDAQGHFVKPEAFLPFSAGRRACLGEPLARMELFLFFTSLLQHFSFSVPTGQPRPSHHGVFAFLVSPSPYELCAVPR
(Microsomes from liver hold many membrane-bound enzymes, among them those of drug oxidation.)

Data set [1] has as its system wild type littermate mice. Briefly: Grooming Test in wild type littermates of Sapap3 and Shank3 complete knockout mice. It counts as in vivo, mouse. As for the experimental part: (§1) Animals. The breeding conditions and genotyping methods for Sapap3 and Shank3 complete knockout mice were the same as described in Welch et al. (Nature 2007, 448(7156):894-900) and in Wang et al. (Nat. Commun. 2016, 7:11459), respectively. Homozygous knockout mice and littermate wild type mice of both genders were used at 4 to 8 weeks of age.
(§2) Compound formulation. The test compounds were dissolved in a small volume of dimethyl sulfoxide (DMSO) and diluted in an aqueous solution of 2-hydroxypropyl-beta-cyclodextrin (HP-β-CD) and administered IP. Dosing volume was 10 mL/kg. At 20 minutes after dosing, the mice were subjected to the behavioral test as described below.
(§3) Testing room and apparatus. The test room was maintained under the same conditions as the colony rooms, except the mice were housed in conventional shoe-box cages with food, water, and nesting materials. Animals were housed in the test room 48-72 hours prior to testing, in order to permit the mice to fully acclimate to the test room and conventional housing cages before testing. Tests were conducted in white polyvinyl-fluoride hard-sided foam test arenas (20×20×12 cm). The arenas were indirectly illuminated by dimmable LED light bars placed level with the arena floor and 30 cm away from the external wall of the test arena. This permitted the internal area of the arena to be evenly illuminated at approximately 40 lux. The illumination levels where the mice were housed before testing were about 80-100 lux.
(§4) Testing procedure. Mice were carefully placed into the test arenas 20 minutes after compound administration. Animals were given free exploration of the arena for 10 minutes, after which they were gently sprayed with 4 quick pumps of a water mist (total water volume approximated 1.5-1.7 mL). Mice were then allowed an additional 10 minutes to self-groom and engage in other behaviors before being removed from the arena. All tests were videotaped using cameras mounted above the testing arena and were saved to digital media format using Noldus Media Player software (Noldus Information Technologies, Leesburg, Va.). The mice were only tested once in the acute studies and were repeatedly tested in the sustained effect studies.
(§5) Quantitation of grooming bouts. Analyses of the video recordings were conducted with TopScan behavioral recognition software (Cleversys Inc, Reston, Va.). Configurations were made which scored time spent in grooming. […] These settings permitted automated scoring of grooming by TopScan that corresponded well to manual-scoring of these behaviors by a trained blinded observer using Noldus Observer XT9 (Noldus Information Technologies), with an average corrected kappa of 0.925 (range 0.807-0.983).
(§6) Statistical analyses. Data are presented as means and standard error of the means (SEMs). Analyses were conducted using SPSS 23 (IBM SPSS Statistics, Chicago, Ill.). Time spent in grooming behavior (seconds) over the 10-minute pre- and post-spray time blocks were analyzed with repeated measures analyses of variance (RMANOVA). The pre- and post-spray times were used for the within subject effects and the genotype and compound treatment condition were used as the between subject effects. In sustained effect studies, days were also used for a within subject effect. Some analyses of total groom time were performed in Prism 7.01 (GraphPad Software, La Jolla, Calif.), with one-way ANOVAs to compare genotypes on Day 1 or with RMANOVAs to compare treatment groups within the same genotype across days. Treatments with compounds were compared independently with the vehicle. All post-hoc comparisons were performed with Bonferroni corrections for multiple comparisons to avoid a Type I error. In all cases, a p<0.05 was considered significant.
The wild type littermates of the Sapap3 knockout and Shank3 complete knockout mice were retested after Day 1 compound administration to determine whether the sustained effects were unique to the knockout mice. […]

Data set [2] deals with wild type mice (male NMRI). Briefly: Marble Burying Test in wild type mice. It counts as in vivo, mouse. The settings on record: Mus musculus, ip, read-out: Percent Change in marbles buried relative to vehicle. A digest of the protocol: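 Male NMRI mice, 12 per group, received compound in 0.5% DMSO/4% HP-β-CD PO or IP 20 min before test. Marbles (25) buried two-thirds or more in sawdust were counted over a blind 30-min session. Groups were compared with vehicle by Kruskal-Wallis then Mann-Whitney U.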

The test system of a further data set is Sapap3 knockout mice. The data set can be described thus: Grooming Test in Sapap3 knockout mice. It counts as in vivo, mouse. As for the experimental part:
as §1, §2, §3, §4, §5, §6
Next, the effect of two subunit-selective NR2B antagonists administered as a single IP dose and assessed 20 minutes postdose was studied in the Sapap3 knockout mice (n=6-10 mice per treatment group). […]

The conditions of data set [3]: single subcutaneous administration, highest dose tested; cited from earlier work.
The conditions of data set [4]: 18 patients, 6-19 years of age; cited from earlier work.
The conditions of data set [5]: after 8 weeks of treatment; cited from earlier work.
The mark [6] stands for this setting: Table 1.1B, read-out: NR2A IC50.

The text below walks through data of patent US11752155B2, “Treatment of autism spectrum disorders, obsessive-compulsive disorder and anxiety disorders” (Rugen Holdings (Cayman) Limited, priority 2016, dated 2023).

Structures can show the parent of a compound that is named as a salt. Where two headings read alike, the source gives them in different places.

human NR1/NR2B, sequence (Q13224 27-1484, other chains not shown): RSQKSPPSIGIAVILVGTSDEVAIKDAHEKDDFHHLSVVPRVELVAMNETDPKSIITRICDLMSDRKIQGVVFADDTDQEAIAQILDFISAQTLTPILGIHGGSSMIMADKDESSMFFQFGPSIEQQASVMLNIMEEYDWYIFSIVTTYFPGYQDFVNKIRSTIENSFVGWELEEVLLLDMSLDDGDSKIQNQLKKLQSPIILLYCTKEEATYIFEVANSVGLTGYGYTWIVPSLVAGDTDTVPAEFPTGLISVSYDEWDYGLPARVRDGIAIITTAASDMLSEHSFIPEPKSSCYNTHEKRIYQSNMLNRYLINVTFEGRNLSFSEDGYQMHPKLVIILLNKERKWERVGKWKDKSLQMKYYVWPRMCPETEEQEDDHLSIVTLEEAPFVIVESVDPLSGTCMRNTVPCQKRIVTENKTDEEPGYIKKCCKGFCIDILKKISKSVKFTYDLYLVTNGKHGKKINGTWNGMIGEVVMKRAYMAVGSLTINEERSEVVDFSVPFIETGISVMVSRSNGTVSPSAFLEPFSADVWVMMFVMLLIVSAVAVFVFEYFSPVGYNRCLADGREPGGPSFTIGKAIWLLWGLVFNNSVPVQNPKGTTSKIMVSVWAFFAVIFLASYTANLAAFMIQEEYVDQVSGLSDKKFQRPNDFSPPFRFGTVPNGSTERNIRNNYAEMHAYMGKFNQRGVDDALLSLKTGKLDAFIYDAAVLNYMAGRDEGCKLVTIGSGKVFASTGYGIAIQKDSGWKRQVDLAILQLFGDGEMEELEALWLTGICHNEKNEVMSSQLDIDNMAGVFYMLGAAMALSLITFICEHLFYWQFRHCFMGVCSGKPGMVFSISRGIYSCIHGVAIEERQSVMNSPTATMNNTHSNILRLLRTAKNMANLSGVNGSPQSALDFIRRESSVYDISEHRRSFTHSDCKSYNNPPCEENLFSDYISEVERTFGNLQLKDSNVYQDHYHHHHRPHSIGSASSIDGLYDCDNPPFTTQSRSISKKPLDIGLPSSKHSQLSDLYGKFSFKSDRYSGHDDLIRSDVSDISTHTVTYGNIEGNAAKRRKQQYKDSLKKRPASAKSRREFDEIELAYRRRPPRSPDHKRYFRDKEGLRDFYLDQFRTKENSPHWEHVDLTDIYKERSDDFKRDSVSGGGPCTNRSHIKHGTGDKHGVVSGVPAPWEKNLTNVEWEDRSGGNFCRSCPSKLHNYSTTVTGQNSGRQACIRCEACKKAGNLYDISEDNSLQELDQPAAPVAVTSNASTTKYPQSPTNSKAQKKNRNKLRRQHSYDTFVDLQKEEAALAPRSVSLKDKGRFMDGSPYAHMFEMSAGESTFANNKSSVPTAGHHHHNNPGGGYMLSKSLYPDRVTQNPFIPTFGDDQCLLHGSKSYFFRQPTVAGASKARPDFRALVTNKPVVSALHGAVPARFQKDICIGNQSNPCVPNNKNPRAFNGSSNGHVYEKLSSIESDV
hERG channel, sequence (Q12809 whole entry): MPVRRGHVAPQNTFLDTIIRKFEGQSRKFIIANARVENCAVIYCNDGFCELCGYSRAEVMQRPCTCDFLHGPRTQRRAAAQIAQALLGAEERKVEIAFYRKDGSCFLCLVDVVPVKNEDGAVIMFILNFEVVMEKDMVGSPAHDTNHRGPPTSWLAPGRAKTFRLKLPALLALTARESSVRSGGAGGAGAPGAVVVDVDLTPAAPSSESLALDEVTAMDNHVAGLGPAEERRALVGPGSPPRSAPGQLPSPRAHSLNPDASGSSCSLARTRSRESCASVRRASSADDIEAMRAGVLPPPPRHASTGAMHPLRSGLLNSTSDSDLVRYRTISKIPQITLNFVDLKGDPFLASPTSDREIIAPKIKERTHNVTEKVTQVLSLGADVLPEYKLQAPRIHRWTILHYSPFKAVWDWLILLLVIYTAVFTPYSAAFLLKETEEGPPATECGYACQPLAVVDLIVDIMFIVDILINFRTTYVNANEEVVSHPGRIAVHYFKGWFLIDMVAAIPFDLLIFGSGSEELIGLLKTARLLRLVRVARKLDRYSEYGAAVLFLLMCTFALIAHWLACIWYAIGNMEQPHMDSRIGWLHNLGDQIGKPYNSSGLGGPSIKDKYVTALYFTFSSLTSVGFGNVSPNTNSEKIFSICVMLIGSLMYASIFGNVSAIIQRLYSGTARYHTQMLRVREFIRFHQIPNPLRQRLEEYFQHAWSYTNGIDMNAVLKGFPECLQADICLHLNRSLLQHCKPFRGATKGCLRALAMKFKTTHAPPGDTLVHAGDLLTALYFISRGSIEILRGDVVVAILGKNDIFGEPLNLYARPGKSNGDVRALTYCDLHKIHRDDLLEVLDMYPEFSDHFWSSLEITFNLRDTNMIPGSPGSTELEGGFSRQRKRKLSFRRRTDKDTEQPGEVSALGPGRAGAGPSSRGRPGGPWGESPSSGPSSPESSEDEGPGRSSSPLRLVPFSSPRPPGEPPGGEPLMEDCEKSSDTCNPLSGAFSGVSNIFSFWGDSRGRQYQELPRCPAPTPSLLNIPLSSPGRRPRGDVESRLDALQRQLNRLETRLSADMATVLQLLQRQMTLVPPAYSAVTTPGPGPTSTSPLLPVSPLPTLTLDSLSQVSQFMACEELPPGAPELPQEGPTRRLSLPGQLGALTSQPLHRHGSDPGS
human NR1/NR2A, sequence (Q12879 23-1464, other chains not shown): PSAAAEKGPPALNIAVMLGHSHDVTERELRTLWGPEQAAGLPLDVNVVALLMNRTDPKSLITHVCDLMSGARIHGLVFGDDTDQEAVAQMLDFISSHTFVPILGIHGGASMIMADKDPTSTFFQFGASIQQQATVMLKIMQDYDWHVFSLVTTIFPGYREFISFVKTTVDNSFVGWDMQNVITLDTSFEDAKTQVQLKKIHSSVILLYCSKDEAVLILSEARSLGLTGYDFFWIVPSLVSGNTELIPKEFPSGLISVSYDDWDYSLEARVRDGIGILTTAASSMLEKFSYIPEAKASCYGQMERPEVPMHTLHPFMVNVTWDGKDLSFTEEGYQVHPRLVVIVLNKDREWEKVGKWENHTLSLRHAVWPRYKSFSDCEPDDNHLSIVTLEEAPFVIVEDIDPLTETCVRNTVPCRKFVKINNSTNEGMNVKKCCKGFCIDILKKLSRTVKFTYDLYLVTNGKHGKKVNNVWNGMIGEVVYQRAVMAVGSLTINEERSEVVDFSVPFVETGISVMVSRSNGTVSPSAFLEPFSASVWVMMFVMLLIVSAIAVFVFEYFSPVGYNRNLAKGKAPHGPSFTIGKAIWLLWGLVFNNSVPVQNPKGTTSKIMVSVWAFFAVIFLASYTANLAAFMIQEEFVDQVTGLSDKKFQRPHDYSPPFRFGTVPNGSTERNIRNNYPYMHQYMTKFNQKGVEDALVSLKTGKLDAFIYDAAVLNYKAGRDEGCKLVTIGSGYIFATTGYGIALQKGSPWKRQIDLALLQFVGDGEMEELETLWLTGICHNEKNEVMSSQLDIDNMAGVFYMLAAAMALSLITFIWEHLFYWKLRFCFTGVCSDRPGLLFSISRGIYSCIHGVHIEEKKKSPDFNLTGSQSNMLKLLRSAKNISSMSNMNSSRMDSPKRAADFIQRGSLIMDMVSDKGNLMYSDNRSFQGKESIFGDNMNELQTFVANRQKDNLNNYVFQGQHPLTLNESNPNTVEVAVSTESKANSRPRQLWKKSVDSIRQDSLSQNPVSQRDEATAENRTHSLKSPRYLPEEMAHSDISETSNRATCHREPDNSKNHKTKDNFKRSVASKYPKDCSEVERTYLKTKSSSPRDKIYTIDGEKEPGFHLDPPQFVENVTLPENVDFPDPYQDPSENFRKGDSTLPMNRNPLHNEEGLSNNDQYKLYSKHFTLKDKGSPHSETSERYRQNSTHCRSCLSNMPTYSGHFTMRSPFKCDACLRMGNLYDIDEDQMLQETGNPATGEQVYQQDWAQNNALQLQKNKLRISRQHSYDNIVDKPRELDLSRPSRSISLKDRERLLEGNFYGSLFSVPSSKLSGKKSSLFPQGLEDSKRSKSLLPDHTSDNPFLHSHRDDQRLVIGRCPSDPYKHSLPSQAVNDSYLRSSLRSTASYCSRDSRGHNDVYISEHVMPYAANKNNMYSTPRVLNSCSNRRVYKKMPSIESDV
Procedure for hERG channel: The assay was performed on hERG channel stably expressed in HEK293 cells. The cells were cultured at 37° C. in a humidified CO2 incubator in the growth medium consisting of DMEM, 10% fetal bovine serum and antibiotics. Prior to the assay, the cells were seeded onto a 12-mm PDL-coated glass coverslip and cultured in a 35-mm Petri dish. After 16 to 40 hours culture, the coverslip was transferred into the chamber of OctaFlow perfusion system (ALA Instrument) and under a constant flow of extracellular solution (140 mM NaCl, 4 mM KCl, 1 mM MgCl2, 2 mM CaCl2, 10 mM HEPES, 10 mM D-glucose, pH 7.35, osmolarity 290). Whole cell patch clamping was performed with a glass micropipette filled with intracellular solution (120 mM KCl, 1.75 mM MgCl2, 5.4 mM CaCl2, 10 mM HEPES, 10 mM EGTA, and 4 mM ATP-K2, pH 7.2, osmolarity 310). Giga-seal was maintained during the test. The voltage control and current measurement were carried out using Axon amplifier 700B, Digidata 1440A and CLAMPEX10 software (Molecular Devices). Whole-cell hERG currents were recorded following the Petroski protocol: the cell was held at −80 mV, and the voltage step jumped from −80 to 30 mV and stay for 2 seconds with a 20-millisecond prepulse at −40 mV. After depolarization, the voltage was decreased to −40 mV and stay for 2 seconds, and returned back to −80 mV. Test compound was applied by quartz capillary tubes tip (200 m inner diameter), and the flow rate was controlled at 2-3 mL/min with OctaFlow perfusion system. Different concentrations of the compound were applied to the cells for 5 minutes and the hERG current was measured three times before, during and after compound treatment. The data were analyzed using Clampfit 10 software (Molecular Devices) to generate IC50 values.

`FC(F)(CN1CCC(Nc2ncnc3[nH]ccc23)CC1)c1ccccn1` [C-1^A′]: the concentration for half-maximal inhibition (IC50) on human NR1/NR2A was over 10 µM.
Turning to `CCc1ccc(COC(=O)N2CC[C@H](CNc3nccn4cnnc34)C(F)(F)C2)cc1` [E1-1.5^B′], the IC50 on human NR1/NR2B (Table 1.1B) is 9.6 nM; at human NR1/NR2B (Table 1.3B), 9.6 nM; on human NR1/NR2B (Table 1.4B), 9.6 nM; on human NR1/NR2A (setting [6]), over 10 µM. The compound also yielded an inhibition at 5 min, 10 µM against hERG channel of 46%. The inhibition at 10 min, 10 µM at CYP2D6 is 28%.
For `Cc1ccc(COC(=O)N2CC[C@H](CNc3ncc4cn[nH]c4n3)C(F)(F)C2)cc1` [E1-8.2^B′], the IC50 on human NR1/NR2A (setting [6]) is over 10 µM. Also, on hERG channel, the inhibition at 5 min, 10 µM came out at 57%. The inhibition at 10 min, 10 µM on CYP2D6 was found to be 83%.
For the compound `Cc1ccc(COC(=O)N2CC[C@H](CNc3nc4ccccn4n3)C(F)(F)C2)cc1` [E1-9.2^B′], the IC50 at human NR1/NR2A (setting [6]) is over 10 µM. The compound also returned an inhibition at 5 min, 10 µM against hERG channel of 38%. Moreover, the inhibition at 10 min, 10 µM on CYP2D6 stood at 14%.
As to `O=C(OCc1ccc(C(F)F)cc1)N1CC[C@H](CNc2ncccn2)C(F)(F)C1` [E1-22.6^B′, (R)-4-(difluoromethyl)benzyl 3,3-difluoro-4-((pyrimidin-2-ylamino)methyl)piperidine-1-carboxylate mesylate], the “effect on grooming on Day 3” value in data set [1] (1 mg/kg IP on Day 1, wild type littermates) is reported as “did not show an effect”; in data set [1] (3 mg/kg IP on Day 1, wild type littermates, mesylate), “significantly reduced grooming”. In data set [1] (1 mg/kg IP, wild type littermates), the “effect on grooming on Day 1” value is “significant reduction in grooming”. Further, the “effect on grooming on Day 5” value in data set [1] (3 mg/kg IP on Day 1, wild type littermates) is listed as “significantly increased grooming”. Moreover, the “acute effect on grooming on Day 1” value in data set [1] (wild type littermates of Sapap3 knockout mice, dose-dependent) was “significantly reduced grooming”. Besides, the IC50 against hERG channel (Table 1.3B) was determined as 7.3 µM; on CYP2D6 (Table 1.4B) it was 41 µM. Also, in data set [2] (0.1 mg/kg), the change in vivo at 0.1 mg/kg was -30%. Moreover, the change in vivo at 0.3 mg/kg in data set [2] (0.3 mg/kg) was -95%. Besides, the change in vivo at 3 mg/kg in [2] (3 mg/kg) was -98%. Besides, the change in vivo at 10 mg/kg in [2] (10 mg/kg) was -100%. Moreover, the “significantly reduced grooming through Day” value in the data set with Sapap3 knockout mice (first dose 3 mg/kg IP on Day 1) and in the data set on Sapap3 knockout mice (single dose 1 mg/kg IP on Day 1) was 15 days throughout. The “acute effect on excessive self-grooming” value in the data set on Sapap3 knockout mice (single IP dose, 20 min postdose, Day 1) was “significantly reduced grooming”.
For the compound `C[C@@H](CN1CCC(Cc2ccccc2)CC1)[C@@H](O)c1ccc(O)cc1` [Ro25-6981], the “efficacy in the Marble Burying Test” value in [3] was “modest efficacy”.
For the compound `CC12CC3CC(C)(C1)CC(N)(C3)C2` [memantine], the “patients who developed adverse effects” value in data set [4] is “seven out of 18”. In addition, in [5], the remission is recorded as 89% and the response is on record as 100%.

For orientation: IC50 means the concentration at which inhibition is half-maximal.
